{"source": "patent US20090285770A1", "about": "“Topical Compositions for Promoting Homeostasis of the Skin” (L'Oreal, priority 2005, published 2009)", "origin": "cited, not measured here", "key": {"[1]": {"tested_on": "P1 integrins", "conditions": "applied to skin ex vivo"}, "[2]": {"tested_on": "β1 integrins", "conditions": "cells in culture"}, "[3]": {"tested_on": "β1 integrins"}, "[4]": {"tested_on": "(6 integrins)", "conditions": "fibroblasts and keratinocytes in culture"}, "[5]": {"tested_on": "α2, α3, α6, αv and β1 integrins", "conditions": "keratinocytes in culture or reconstructed skins"}}, "note": "Where two headings read alike, the source gives them in different places. Ends that are not written are not given here.", "data": [{"substance": "GPQGPQ [COLLAXYL, collagen mimetic hexapeptide sold by Vincience]", "values": [{"measurement": "expression of P1 integrins", "setting": "[1]", "result": "stimulates the expression of P1 integrins"}]}, {"substance": "KLDAPT [VINCI 02, fibronectin mimetic hexapeptide sold by Vincience]", "values": [{"measurement": "expression of β1 integrins", "setting": "[2]", "result": "stimulates the expression of β1 integrins"}]}, {"substance": "RDFTKATNIRLRFLR [VINCI 01, laminin mimetic oligopeptide sold by Vincience]", "values": [{"measurement": "expression of β1 integrins", "setting": "[3]", "result": "stimulates the expression of β1 integrins"}]}, {"substance": "SERILESINE", "values": [{"measurement": "expression of (6 integrins)", "setting": "[4]", "result": "increasing the expression of (6 integrins"}]}, {"substance": "copper gluconate", "values": [{"measurement": "expression of integrins, in particular the α2, α3, α6, αv and β1 integrins", "setting": "[5]", "result": "capable of increasing the expression of integrins"}]}, {"substance": "manganese gluconate", "values": [{"measurement": "expression of integrins, in particular the α2, α3, α6, αv and β1 integrins", "setting": "[5]", "result": "capable of increasing the expression of integrins"}]}, {"substance": "zinc gluconate", "values": [{"measurement": "expression of integrins, in particular the α2, α3, α6, αv and β1 integrins", "setting": "[5]", "result": "capable of increasing the expression of integrins"}]}]}
